# From PubChem BioAssay (NCI)
# “And” between values parts separate entries of the source, which are not always exact repeats. Equal entries are not always repeated.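 How tested: cells in 96-well plates exposed to compound for 48 hours at five concentrations. GI50: concentration for 50% inhibition of growth. The concentration for full growth arrest is given as TGI.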
# Columns and labels:
# Experiment in all cases: inhibition of tumour cell growth, NCI panel, 48 h
# SF-295 CNS = system: SF-295 CNS
# SNB-19 CNS = system: SNB-19 CNS
# HCT-116 colon = system: HCT-116 colon
# U251 CNS = system: U251 CNS
# NCI-H522 lung = system: NCI-H522 lung
# CAKI-1 renal = system: CAKI-1 renal
# CCRF-CEM leukemia = system: CCRF-CEM leukemia
# SK-MEL-28 melanoma = system: SK-MEL-28 melanoma
# COLO 205 colon = system: COLO 205 colon
# SK-MEL-5 melanoma = system: SK-MEL-5 melanoma
Structure (SMILES),TGI (SF-295 CNS),TGI (SNB-19 CNS),TGI (HCT-116 colon),TGI (U251 CNS),TGI (NCI-H522 lung),TGI (CAKI-1 renal),TGI (CCRF-CEM leukemia),TGI (SK-MEL-28 melanoma),TGI (COLO 205 colon),TGI (SK-MEL-5 melanoma),GI50 (SF-295 CNS),GI50 (HCT-116 colon),GI50 (U251 CNS),GI50 (NCI-H522 lung),GI50 (CAKI-1 renal),GI50 (CCRF-CEM leukemia),GI50 (SK-MEL-28 melanoma),GI50 (COLO 205 colon),GI50 (SK-MEL-5 melanoma),GI50 (SNB-19 CNS)
CCOC(=O)c1cc2cc([N+](=O)[O-])ccc2oc1=O,> 100 µM,> 100 µM,> 100 µM,> 100 µM,> 100 µM,> 100 µM,> 100 µM,> 100 µM,> 100 µM,> 100 µM,–,–,–,–,–,–,–,–,–,–
Cc1ccc(C)c2sc3cc(=O)ccc-3nc12,> 100 µM,> 100 µM,> 100 µM,> 100 µM,67.6 µM,70.5 µM,70.3 µM,> 100 µM,> 100 µM,31 µM,–,–,–,–,–,–,–,–,–,–
CC1=CC(=O)c2[nH]c3ccccc3c2C1=O,7.93 µM,> 25 µM,7.93 µM,> 25 µM,7.24 µM,> 25 µM,10.6 µM,7.98 µM,7.55 µM,7.66 µM,4.32 µM,4.44 µM,15.4 µM,3.82 µM,14.4 µM,3.33 µM,4.47 µM,4.12 µM,4.22 µM,–
CCc1ccc(/C=C2/SC(=S)NC2=O)cc1,56.8 µM,> 90.3 µM,59.5 µM,62.6 µM,43.8 µM,> 81.5 µM,> 80.4 µM,79.7 µM,33.7 µM,37.6 µM,18.2 µM,21 µM,18.7 µM,15 µM,24 µM,22.6 µM,22.9 µM,18.3 µM,14.9 µM,20.3 µM
Clc1ccc(CCN2CCOCC2)c(Cl)c1,> 100 µM,> 100 µM,> 100 µM,> 100 µM,> 100 µM,> 100 µM,> 100 µM,> 100 µM,> 100 µM,> 100 µM,–,–,–,–,–,–,–,–,–,–
C1CCN2CC34CC(CC5CCCN(C6CCCC3N6)C54)C2C1 (stereo not drawn),> 100 µM,> 100 µM,> 100 µM,> 100 µM,> 100 µM,> 100 µM,> 100 µM,> 100 µM,> 100 µM,> 100 µM,–,–,–,–,–,–,–,–,–,–
Clc1cccc(C2SCc3nc4ccccc4n32)c1Cl (stereo not drawn),30.4 µM,33.1 µM,33.5 µM,31.7 µM,32.1 µM,34.1 µM,48.2 µM,35.9 µM,36 µM,27.3 µM,–,–,–,–,–,–,–,–,–,–
O=C1C=Cc2noc3cccc1c23,32.8 µM,31.3 µM,4.47 µM,26.4 µM,3.04 µM,25.4 µM,5.35 µM,17.6 µM,34 µM,24.2 µM,–,–,–,–,–,–,–,–,–,–
N#CC(/C(=N\NC(N)=S)C(=O)NC1C2CC3CC(C2)CC1C3)c1ccc(Cl)cc1 (stereo not drawn),> 100 µM,> 100 µM,> 100 µM,> 100 µM,> 100 µM,> 100 µM,> 100 µM,> 100 µM,> 100 µM,> 100 µM,–,–,–,–,–,–,–,–,–,–
Cc1cc(C#Cc2ccccc2)ccc1-n1c(/C=C/c2ccc(O)cc2)nc2ccccc2c1=O,13.6 µM,> 100 µM,11 µM,> 100 µM,27.3 µM,36.5 µM,> 100 µM,> 100 µM,4.75 µM,3.83 µM,2.85 µM,2.66 µM,4.33 µM,2.26 µM,3.3 µM,3.26 µM,4.54 µM,1.99 µM,1.77 µM,6.91 µM
CCCCCCCCSC(SCCCCCCCC)=C1C(=O)N(c2ccccc2)N=C1C,> 100 µM,> 100 µM,38.7 µM,34 µM,57.1 µM,90.7 µM,44 µM,> 100 µM,46.5 µM,> 100 µM,–,–,–,–,–,–,–,–,–,–
O=C(/C=C/c1cccs1)Nc1ncc(Cc2ccccc2F)s1,> 100 µM,> 100 µM,> 100 µM,> 100 µM,–,> 100 µM,> 100 µM,> 100 µM,26.9 µM,> 100 µM,0.244 µM,0.273 µM,0.35 µM,0.194 µM,0.0753 µM,0.254 µM,0.886 µM,0.325 µM,0.242 µM,0.361 µM
O=C1CCC(c2ccccc2)(c2ccccc2)CC1,> 100 µM,> 100 µM,> 100 µM,> 100 µM,> 100 µM,> 100 µM,52 µM,> 100 µM,89.9 µM,> 100 µM,–,–,–,–,–,–,–,–,–,–
CCN(CC)c1ccc(/C=N\NC(=O)c2cccc(Nc3ccnc(C(F)(F)F)c3)c2)c(O)c1,2.47 µM,> 100 µM,31 µM,> 37.5 µM,15.7 µM,0.496 µM,1.27 µM,> 20.8 µM,2.58 µM,0.883 µM,0.312 µM,0.121 µM,0.183 µM,0.393 µM,0.182 µM,0.084 µM,0.191 µM,0.327 µM,0.242 µM,0.418 µM
COCCOC(=O)CCn1cc(F)c(=O)[nH]c1=O,> 150 µg/mL,> 150 µg/mL,> 150 µg/mL,> 150 µg/mL,> 150 µg/mL,> 150 µg/mL,> 150 µg/mL,> 150 µg/mL,> 150 µg/mL,> 150 µg/mL,33.2 µg/mL,4.54 µg/mL,51 µg/mL,131 µg/mL,4.07 µg/mL,16 µg/mL,31.7 µg/mL,4.75 µg/mL,20.4 µg/mL,41.6 µg/mL
S=C1OC2C3C4CC5C3C(O1)C1C5C4C21 (stereo not drawn),> 100 µM,> 100 µM,> 100 µM,> 100 µM,> 100 µM,> 100 µM,> 100 µM,> 100 µM,> 100 µM,> 100 µM,–,–,–,–,–,–,–,–,–,–
OCC1CC2CC1C1(C2)OCCO1 (stereo not drawn),> 100 µM,> 100 µM,> 100 µM,> 100 µM,> 100 µM,> 100 µM,> 100 µM,> 100 µM,> 100 µM,> 100 µM,–,–,–,–,–,–,–,–,–,–
Cc1ccc(S(=O)(=O)ON=C2CC(c3ccccc3)N(C)C(c3ccccc3)C2)cc1 (stereo not drawn),52.4 µM and 65.5 µM,92.8 µM and > 100 µM,29.6 µM and 27.5 µM,55.3 µM and 53.6 µM,27.4 µM and 25.2 µM,71.5 µM and 44.9 µM,> 100 µM,54.3 µM and 49 µM,29 µM and 28.3 µM,32.5 µM and 31.8 µM,–,–,–,–,–,–,–,–,–,–
